From patent US20060019890A1, “Method for treating cardiac remodeling following myocardial injury” (priority 2004, published 2006)

Tests used:
[1] = tested on: human cardiac fibroblasts; assay: BrdU incorporation, cardiac fibroblast proliferation; assay type: cell-based; conditions: 5 ng/ml TGFβ
Procedure: Cells were placed in 96-well plates and cultured for 24 h before changing to serum-free medium. […] Subsequently, 10 μmol/L of 5-bromo-2′-deoxyuridine (BrdU) was added to the cells, and they were cultured for an additional 24 h. BrdU incorporation was detected using the Cell Proliferation ELISA kit (Roche, Indianapolis, Ind.). Data was analyzed by ANOVA using the Newman-Keuls test to assess significance.

[2] = tested on: human cardiac fibroblasts; assay: Western blot analysis of Collagen 1 and Fibronectin protein; assay type: cell-based; conditions: 48 h
Procedure: Lysis was induced with 0.2 ml of buffer containing 20 mM Tris-HCL, pH 7.9, 137 mM NaCl, 1% Triton X-100, 5 mM EDTA, 10 mM NaF, 1 mM β-glycerophosphate, and protease inhibitor cocktail. The protein concentration of each lysate was measured using coomassie protein reagent from PIERCE. Twenty μg of protein from each sample was loaded and electrophoresed on 4-12% gradient polyacrylamide gels and electrophoretically transferred to nitrocellulose membranes (Invitrogen, San Diego, Calif.). The membranes were incubated with rabbit anti-human Collagen 1 antibody (Cortex Biochem, San Leandro, Calif.), HRP-conjugated anti-human Fibronectin antibody, or goat anti-Actin antibody (Santa Cruz Biotehnology, Santa Cruz, Calif.) in TBST buffer containing 20 mM Tris-HCl, pH 7.5, 150 mM NaCl, 0.1% Tween-20, and 5% nonfat dried milk at 4° C. for ˜16 h. For ERK phosphorylation, cells were treated with 0.5 μmol/L BNP in the presence of 1 μmol/L KT5823 or 10 μmol/L U0126 for 15 min; the membranes were incubated with rabbit anti-human phospho-ERK ½ antibody or rabbit anti-human ERK ½ antibody (Cell Signaling, Beverly, Mass.). For secondary antibody detection, membranes were incubated with HRP-conjugated anti-rabbit antibody or anti-goat antibody at room temperature for 1 h and washed 3 times with TBST buffer. The blots were soaked in ECL Plus reagent for 5 min and exposed to KODAK x-ray film. Signals were identified and quantified using a Typhoon Scanner and Densitometer from Amersham Biosciences (Piscataway, N.J.). Data was analyzed by ANOVA using the Newman-Keuls test to assess significance. Results cGMP Production in Cardiac Fibroblasts

[3] = tested on: human cardiac fibroblasts; assay: cDNA microarray gene expression profiling of TGFβ- and/or BNP-treated cardiac fibroblasts; conditions: for number of gene expression changes induced: 1.8-fold threshold
Procedure: Two lots of primary human cardiac fibroblasts, derived from a person (lot 1) and a person (lot 2), were provided by Cambrex Bio Science (Walkersville, Md.). Cells stained positive for α-smooth muscle actin and vimenfin antibodies corroborating their identity as cardiac fibroblasts and myofibroblasts. Both lots were used for the real-time RT-PCR studies; lot 1 was used for the microarray analysis. Cells at passage 3-5 were cultured in FGM containing 15% FBS. At confluence, cells were split and cultured in 6-well plates for 24 h.
Gene expression profiles were determined from cDNA microarrays containing 8,600 elements derived from clones isolated from normalized cDNA libraries or purchased from ResGen (Invitrogen Life Technologies, Carlsbad, Calif.). DNA for spotting was generated by PCR amplification using 5′amino-modified primers (BD Biosciences Clontech, Palo Alto, Calif.) derived from flanking vector sequences. Amplified DNA was purified in a 96-well format using Qiagen's Qiaquick columns (Valencia, Calif.) according to the manufacturer's recommendations. Samples were eluted in Milli-Q purified water, dried to completion and resuspended in 7 μl of 3×SSC. A fluorescent assay using PicoGreen (Molecular Probes, Eugene, Oreg.) was randomly performed on 12% of the PCR products to determine the average yield after purification; yields were ˜1.5 μg of DNA which corresponds to a concentration of 214 μg/ml. Purified DNA was arrayed from 384-well microtiter plates onto lysine-coated glass slides using an OmniGrid II microarrayer (GeneMachines, San Carlos, Calif.). After printing, DNA was cross-linked to the glass with 65 mjoules UV irradiation and reactive amines were blocked by treatment with succinic anhydride.
Total RNA was extracted from cells using Qiagen's RNeasy kit; two wells from a 6 well plate were pooled to yield a total of 4×10^5 cells per treatment. RNA was amplified using a modified Eberwine protocol^5 that incorporated a polyA tail into the amplified RNA. Fluorescently-labeled cDNA probes were generated by reverse transcription of 4 μg of RNA with SuperScript II (Invitrogen Life Technologies, Carlsbad, Calif.) using anchored dT primers in the presence of Cy3 or Cy5 dUTP (Amersham, Piscataway, N.J.). Labeled cDNA probe pairs were precipitated with ethanol and purified using Qiaquick columns. Twenty μg each of poly(A) DNA, yeast tRNA, and human Cot1 DNA (Applied Genetics, Melbourne, Fla.) was added to the eluant. The samples were dried to completion and resuspended in 12.5 μl 3×SSC, 0.1% SDS. Probes were heated to 95° C. for 5 minutes, applied to the arrays under a 22 mm^2 cover slip and allowed to hybridize for at least 16 h at 65° C. The arrays were washed at 55° C. for 10 minutes in 2×SSC, 0.1% SDS, followed by two washes at room temperature in 1×SSC (10 min) and 0.2×SSC (15 min). Hybridization of each fluorophore was quantified using an Axon GenePix 4000A scanner.
Differential expression values were expressed as the ratio of the median of background-subtracted fluorescent intensity of the experimental RNA to the median of background-subtracted fluorescent intensity of the control RNA. For ratios greater than or equal to 1.0, the ratio was expressed as a positive value. For ratios less than 1.0, the ratio was expressed as the negative reciprocal (i.e., a ratio of 0.5=−2.0). Median ratios were normalized to 1.0 using two pools of 3000 randomly chosen cDNAs in each pool. Six replicates of each of the two pools were printed in 4 evenly distributed blocks of the array. Expression data was rejected if neither channel produced a signal of at least 2.0-fold over background. Differential expression ratios were determined as the mean of the two values from dye-swapped duplicates.

[4] = tested on: human cardiac fibroblasts; assay: Real-time RT-PCR gene expression in cardiac fibroblasts; assay type: cell-based; conditions: normalized to 18s RNA
Procedure: Real-time RT-PCR^18 was performed in a two-step manner. cDNA synthesis and real-time detection were carried out in a PTC-100™ Thermal Cycler (MJ Research Inc, Waltham, Mass.) and an ABI Prism™ 7700 Sequence Detection System (Applied Biosystems, Foster City, Calif.), respectively. Random hexamers (Qiagen, Valencia, Calif.) were used to generate cDNA from 200 ng RNA as described in Applied Biosystems User Bulletin #2. TaqMan™ PCR Core Reagent Kit or TaqMan™ Universal PCR Master Mix (Applied Biosystems) were used in subsequent PCR reactions according to the manufacturer's protocols. Relative quantitation of gene expression was performed using the relative standard curve method. All real-time RT-PCR reactions were performed in triplicate.
Sequence specific primers and probes were designed using Primer Express Version 2 software (Applied Biosystems). Sequences of primers and probes can be found in Table 1 below. Expression levels were normalized to 18S rRNA. The selection of 18S rRNA as an endogenous control was based on an evaluation of the ΔCT levels (Applied Biosystems document # 4308134C) of 6 “housekeeping” genes: Cyclophilin A, 18S, GAPDH, β-actin, β-Glucuronidase, and Hypoxanthine Guanine Phosphoribosyl Transferase.

TGFβ
increase in cardiac fibroblast proliferation (BrdU incorporation) [1]: ~50%
induction of Collagen 1 protein synthesis [2]: ~3 fold
number of gene expression changes induced ([3]; 24 h): 394
TNFAIP6 expression elevation ([3]; 24 h, microarray): ~3 fold
TNFSF4 expression elevation ([3]; 24 h, microarray): ~3 fold
number of gene expression changes induced ([3]; 48 h): 501
ACTA2 expression level relative to control ([4]; 6 h, lot 1): 1.1 ± 0.11
CTGF expression level relative to control ([4]; 6 h, lot 1): 3.5 ± 0.08
Collagen 1 expression level relative to control ([4]; 6 h, lot 1): 1.9 ± 0.04
Fibronectin expression level relative to control ([4]; 6 h, lot 1): 1.1 ± 0.17
IL6 expression level relative to control ([4]; 6 h, lot 1): 3.6 ± 0.27
IL11 expression level relative to control ([4]; 6 h, lot 1): 13.3 ± 0.89
PTGS2/COX-2 expression level relative to control ([4]; 6 h, lot 1): 9.0 ± 1.49
SERPINE1/PAI-1 expression level relative to control ([4]; 6 h, lot 1): 7.3 ± 0.44
TIMP3 expression level relative to control ([4]; 6 h, lot 1): 1.4 ± 0.03
ACTA2 expression level relative to control ([4]; 24 h, lot 1): 2.2 ± 0.00
CTGF expression level relative to control ([4]; 24 h, lot 1): 3.3 ± 0.25
Collagen 1 expression level relative to control ([4]; 24 h, lot 1): 3.3 ± 0.05
Fibronectin expression level relative to control ([4]; 24 h, lot 1): 1.0 ± 0.05
IL6 expression level relative to control ([4]; 24 h, lot 1): 1.7 ± 0.14
IL11 expression level relative to control ([4]; 24 h, lot 1): 32.3 ± 0.82
PTGS2/COX-2 expression level relative to control ([4]; 24 h, lot 1): 3.5 ± 0.67
SERPINE1/PAI-1 expression level relative to control ([4]; 24 h, lot 1): 8.5 ± 0.08
TIMP3 expression level relative to control ([4]; 24 h, lot 1): 2.6 ± 0.26
ACTA2 expression level relative to control ([4]; 24 h, lot 2): 2.3 ± 0.12
CTGF expression level relative to control ([4]; 24 h, lot 2): 2.2 ± 0.16
Collagen 1 expression level relative to control ([4]; 24 h, lot 2): 1.5 ± 0.09
Fibronectin expression level relative to control ([4]; 24 h, lot 2): 1.0 ± 0.02
IL6 expression level relative to control ([4]; 24 h, lot 2): 1.4 ± 0.05
IL11 expression level relative to control ([4]; 24 h, lot 2): 7.7 ± 0.81
PTGS2/COX-2 expression level relative to control ([4]; 24 h, lot 2): 4.9 ± 0.36
SERPINE1/PAI-1 expression level relative to control ([4]; 24 h, lot 2): 2.4 ± 0.06
TIMP3 expression level relative to control ([4]; 24 h, lot 2): 1.5 ± 0.12
ACTA2 expression level relative to control ([4]; 48 h, lot 1): 1.0 ± 0.19
CTGF expression level relative to control ([4]; 48 h, lot 1): 3.1 ± 0.01
Collagen 1 expression level relative to control ([4]; 48 h, lot 1): 3.8 ± 0.38
Fibronectin expression level relative to control ([4]; 48 h, lot 1): 2.2 ± 0.38
IL6 expression level relative to control ([4]; 48 h, lot 1): 1.6 ± 0.12
IL11 expression level relative to control ([4]; 48 h, lot 1): 17.6 ± 0.22
PTGS2/COX-2 expression level relative to control ([4]; 48 h, lot 1): 2.2 ± 0.12
SERPINE1/PAI-1 expression level relative to control ([4]; 48 h, lot 1): 8.4 ± 1.33
TIMP3 expression level relative to control ([4]; 48 h, lot 1): 3.0 ± 0.34
ACTA2 expression level relative to control ([4]; 48 h, lot 2): 2.5 ± 0.13
CTGF expression level relative to control ([4]; 48 h, lot 2): 2.1 ± 0.14
Collagen 1 expression level relative to control ([4]; 48 h, lot 2): 2.5 ± 0.32
Fibronectin expression level relative to control ([4]; 48 h, lot 2): 2.0 ± 0.39
IL6 expression level relative to control ([4]; 48 h, lot 2): 1.4 ± 0.17
IL11 expression level relative to control ([4]; 48 h, lot 2): 5.9 ± 0.18
PTGS2/COX-2 expression level relative to control ([4]; 48 h, lot 2): 5.4 ± 0.92
SERPINE1/PAI-1 expression level relative to control ([4]; 48 h, lot 2): 2.6 ± 0.03
TIMP3 expression level relative to control ([4]; 48 h, lot 2): 1.7 ± 0.13
